For 26 molecules, MIC, melting point and IC50 results are on record in PMC7397076 (Molecules, 2020).

Values after ≈ are worked out from the molar mass of the structure shown. Like-named read-outs stand apart in the source and are kept apart here.

In data set [1] the test system is Mycobacterium tuberculosis H37Rv. Nature of the data set: Microplate Alamar Blue Assay (MABA), antitubercular activity. The data set is classed as cell-based. A general note: Alamar Blue is a resazurin reagent that responds to reducing activity.
A further data set deals with InhA reductase enzyme (Mycobacterium tuberculosis, UniProt P9WGR1). Briefly: In vitro InhA enzyme inhibition (NADH oxidation at 340 nm).
Chain of InhA reductase enzyme (P9WGR1 whole entry, looked up): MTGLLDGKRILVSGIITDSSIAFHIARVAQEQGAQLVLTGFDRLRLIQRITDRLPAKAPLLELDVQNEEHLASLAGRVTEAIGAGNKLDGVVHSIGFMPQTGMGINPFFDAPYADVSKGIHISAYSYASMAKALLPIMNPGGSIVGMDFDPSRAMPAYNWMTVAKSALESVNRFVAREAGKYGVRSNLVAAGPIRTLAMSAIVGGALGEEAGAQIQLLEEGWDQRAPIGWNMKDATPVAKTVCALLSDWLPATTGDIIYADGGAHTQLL
In another data set the test system is Vero cell line. Briefly: Cytotoxicity test, MTT assay. Conditions: Chlorocebus sabaeus, 24 h, Vero cells, 24 h exposure, 0.1–200 µg/mL, read-out: Vero Cell Line IC50 ± SEM. It is filed as cell-based, African green monkey. In general terms: Tetrazolium assays rely on reduction of a dye to a coloured formazan, in cell work by metabolically active cells.
Setting [2] is: Mycobacterium tuberculosis, H37RV, M. tuberculosis H37Rv, MABA, lowest concentration giving ≥90% reduction in fluorescence, read-out: MIC.
[3] abbreviates: M. tuberculosis H37Rv, MABA, lowest concentration giving ≥90% reduction in fluorescence.

A word on the MIC: it is the least concentration at which growth counts as inhibited. What is called melting point is the temperature of the solid-liquid transition. Usually IC50 stands for the concentration at which inhibition is half-maximal. `O=C(N/N=C/c1ccc(OCc2ccccc2)cc1)c1ccc(Oc2ccccc2)cc1` [Compound 8f, (E)-N′-[4-(Benzyloxy)benzylidene]-4-phenoxybenzohydrazide] had a melting point of 228 to 231 °C. For the same molecule, the MIC in data set [1] (setting [2]) turned out to be 22.6 µg/mL (≈ 53.5 µM). The IC50 against InhA reductase enzyme was found to be 29.9 µM.

On to `NNC(=O)c1ccc(Oc2ccccc2)cc1` [Compound 3, 4-Phenoxybenzohydrazide], for which the MIC in data set [1] (setting [3]) was 0.86 µg/mL (≈ 3.77 µM); in data set [1] (setting [2]), 0.61 to 1.69 µg/mL (≈ 2.67 to 7.4 µM). Besides, the figures for the IC50 in the data set with Vero cell line and against InhA reductase enzyme were greater than 60 µg/mL and 3.43 µM, respectively.

With `c1ccc(COc2ccc(-c3nnc(-c4ccc(Oc5ccccc5)cc4)o3)cc2)cc1` [Compound 6f, 2-(4-(Benzyloxy)phenyl)-5-(4-phenoxyphenyl)-1,3,4-oxadiazole], the melting point lay in the range of 226 to 229 °C. Moreover, the MIC in data set [1] (setting [2]) is 8.23 µg/mL (≈ 19.6 µM). For the same molecule, the IC50 against InhA reductase enzyme came out at 41.2 µM.

`O=C(N/N=C/c1ccncc1)c1ccc(Oc2ccccc2)cc1` [Compound 8i, (E)-4-Phenoxy-N′-(pyridin-4-ylmethylene)benzohydrazide] had a melting point of 175 to 177 °C. Also, in data set [1] (setting [2]), the MIC turned out to be 6.82 µg/mL (≈ 21.5 µM). Moreover, at InhA reductase enzyme, it took 21.4 µM to reach half-maximal inhibition (IC50).

As for `c1ccc(Oc2ccc(-c3nnc(-c4ccco4)o3)cc2)cc1` [Compound 6j, 2-(Furan-2-yl)-5-(4-phenoxyphenyl)-1,3,4-oxadiazole], the melting point was in the range of 129 to 132 °C. In addition, the MIC in data set [1] (setting [2]) was 11.1 µg/mL (≈ 36.5 µM). Also, the IC50 at InhA reductase enzyme was 51.4 µM.

For the molecule `Oc1cc(Cl)ccc1Oc1ccc(Cl)cc1Cl` [Triclosan, triclosan, reference compound], the MIC in data set [1] (setting [3]) is 10.00 µg/mL (≈ 34.5 µM); in data set [1] (Mycobacterium tuberculosis, H37RV), 10 µg/mL (≈ 34.5 µM).

In the case of `O=C(N/N=C/c1ccccc1)c1ccc(Oc2ccccc2)cc1` [Compound 8a, (E)-N′-Benzylidene-4-phenoxybenzohydrazide], the melting point is 163 to 165 °C. For the same molecule, in data set [1] (setting [2]), the MIC was determined as 34.5 µg/mL (≈ 109 µM). Moreover, the IC50 on InhA reductase enzyme is 73.2 µM.

Take `O=C(N/N=C/c1ccc(Cl)cc1)c1ccc(Oc2ccccc2)cc1` [Compound 8e, (E)-N′-(4-Chlorobenzylidene)-4-phenoxybenzohydrazide]: the melting point fell in the range of 184 to 186 °C. For the same molecule, in data set [1] (setting [2]), the MIC came out at 2.89 µg/mL (≈ 8.24 µM). Besides, inhibition against InhA reductase enzyme was half-maximal at 7.46 µM (IC50).

Regarding `c1ccc(Oc2ccc(-c3nnc(-c4ccc(Oc5ccccc5)cc4)o3)cc2)cc1` [Compound 6l, 2,5-bis(4-Phenoxyphenyl)-1,3,4-oxadiazole], the melting point lay within 232 to 234 °C. The molecule further returned an MIC in data set [1] (setting [3]) of 1.17 µg/mL (≈ 2.88 µM). In addition, in data set [1] (setting [2]), the MIC is 0.61 to 1.69 µg/mL (≈ 1.5 to 4.16 µM). Also, the IC50 in the data set on Vero cell line is greater than 60 µg/mL. In addition, the midpoint of inhibition against InhA reductase enzyme, the IC50, lay at 5.63 µM.

As for `O=C(N/N=C/c1ccco1)c1ccc(Oc2ccccc2)cc1` [Compound 8j, (E)-N′-(Furan-2-ylmethylene)-4-phenoxybenzohydrazide], the MIC in data set [1] (setting [2]) worked out at 6.35 µg/mL (≈ 20.7 µM). The IC50 on InhA reductase enzyme worked out at 18.4 µM.

For the molecule `COc1ccc(-c2nnc(-c3ccc(Oc4ccccc4)cc3)o2)cc1` [Compound 6c, 2-(4-Methoxyphenyl)-5-(4-phenoxyphenyl)-1,3,4-oxadiazole], the melting point lay in the range of 226 to 228 °C. Besides, the MIC in data set [1] (setting [2]) came out at 39 µg/mL (≈ 113 µM). This molecule also had an IC50 against InhA reductase enzyme greater than 100 µM.

Turning to `c1ccc(Oc2ccc(-c3nnc(-c4cccc5ccccc45)o3)cc2)cc1` [Compound 6g, 2-(Naphthalen-1-yl)-5-(4-phenoxyphenyl)-1,3,4-oxadiazole], the melting point lay in the range of 173 to 175 °C. In data set [1] (setting [2]), the MIC was 12.2 µg/mL (≈ 33.6 µM). Also, the IC50 at InhA reductase enzyme turned out to be 33.8 µM.

As to `c1ccc(Oc2ccc(-c3nnco3)cc2)cc1` [Compound 4, 2-(4-Phenoxyphenyl)-1,3,4-oxadiazole], the MIC was 0.61 µg/mL (≈ 2.56 µM) in data set [1] (setting [3]) and 0.61 to 1.69 µg/mL (≈ 2.56 to 7.09 µM) in data set [1] (setting [2]). The IC50 with Vero cell line is greater than 60 µg/mL; against InhA reductase enzyme, 3.28 µM.

For the molecule `O=C(N/N=C/c1cccc2ccccc12)c1ccc(Oc2ccccc2)cc1` [Compound 8g, (E)-N′-(Naphthalen-1-ylmethylene)-4-phenoxybenzohydrazide], the melting point is 193 to 195 °C. The IC50 in the data set on Vero cell line was greater than 60 µg/mL. Also, at InhA reductase enzyme, the 50% inhibitory concentration (IC50) stood at 4.23 µM.

As to `Clc1ccc(-c2nnc(-c3ccc(Oc4ccccc4)cc3)o2)cc1` [Compound 6e, 2-(4-Chlorophenyl)-5-(4-phenoxyphenyl)-1,3,4-oxadiazole], in data set [1] (setting [2]), the MIC worked out at 15.9 µg/mL (≈ 45.6 µM). This molecule also showed a half-inhibitory concentration (IC50) at InhA reductase enzyme of 64.5 µM.

With `c1ccc(Oc2ccc(-c3nnc(-c4ccncc4)o3)cc2)cc1` [Compound 6i, 2-(4-Phenoxyphenyl)-5-(pyridin-4-yl)-1,3,4-oxadiazole], the melting point was in the range of 125 to 127 °C. For the same molecule, in the data set with Vero cell line, the IC50 was greater than 60 µg/mL. The molecule also registered an IC50 against InhA reductase enzyme of 11.7 µM.

The molecule `O=C(N/N=C/c1cccnc1)c1ccc(Oc2ccccc2)cc1` [Compound 8h, (E)-4-Phenoxy-N′-(pyridin-3-ylmethylene)benzohydrazide] returned a melting point of 149 to 151 °C. Further, the MIC in data set [1] (setting [2]) came to 6.96 µg/mL (≈ 21.9 µM). The same molecule returned an IC50 at InhA reductase enzyme of 26.5 µM.

As to `c1ccc(Oc2ccc(-c3nnc(-c4cccs4)o3)cc2)cc1` [Compound 6k, 2-(4-Phenoxyphenyl)-5-(thiophen-2-yl)-1,3,4-oxadiazole], the melting point fell in the range of 139 to 141 °C. For the same molecule, in the data set with Vero cell line, the IC50 stood at 68.6 ± 1.19 µg/mL (≈ 214 µM). On InhA reductase enzyme, this molecule registered an IC50 of 78.6 µM.

On to `COc1cc(/C=N/NC(=O)c2ccc(Oc3ccccc3)cc2)cc(OC)c1OC` [Compound 8b, (E)-4-Phenoxy-N′-(3,4,5-trimethoxybenzylidene)benzohydrazide], for which the melting point lay in the range of 191 to 192 °C. Moreover, the MIC in data set [1] (setting [2]) was 50.2 µg/mL (≈ 124 µM). This molecule returned a half-inhibitory concentration (IC50) on InhA reductase enzyme greater than 100 µM.

`COc1ccc(/C=N/NC(=O)c2ccc(Oc3ccccc3)cc2)cc1` [Compound 8c, (E)-N′-(4-Methoxybenzylidene)-4-phenoxybenzohydrazide] had a melting point of 233 to 235 °C. For the same molecule, in data set [1] (setting [2]), the MIC is 20.7 µg/mL (≈ 59.7 µM). The IC50 on InhA reductase enzyme turned out to be 75.5 µM.

Regarding `NNC(=O)c1ccncc1` [INH, isoniazid, reference compound], the MIC in data set [1] (setting [3]) was 0.20 µg/mL (≈ 1.46 µM); in data set [1] (setting [2]), 0.2 µg/mL (≈ 1.46 µM).

Molecule `O=[N+]([O-])c1ccc(-c2nnc(-c3ccc(Oc4ccccc4)cc3)o2)cc1` [Compound 6d, 2-(4-Nitrophenyl)-5-(4-phenoxyphenyl)-1,3,4-oxadiazole] had a melting point of 226 to 228 °C. Moreover, the MIC in data set [1] (setting [2]) was 15.2 µg/mL (≈ 42.2 µM). The same molecule came in with an IC50 against InhA reductase enzyme of 68.4 µM.

Regarding `COc1cc(-c2nnc(-c3ccc(Oc4ccccc4)cc3)o2)cc(OC)c1OC` [Compound 6b, 2-(4-Phenoxyphenyl)-5-(3,4,5-trimethoxyphenyl)-1,3,4-oxadiazole], the melting point lay in the range of 250 to 253 °C. In addition, the MIC in data set [1] (setting [2]) stood at 34.6 µg/mL (≈ 85.7 µM). This molecule gave an IC50 against InhA reductase enzyme greater than 100 µM.

`c1ccc(Oc2ccc(-c3nnc(-c4ccccc4)o3)cc2)cc1` [Compound 6a, 2-(4-Phenoxyphenyl)-5-phenyl-1,3,4-oxadiazole]: the melting point fell in the range of 233 to 235 °C. Moreover, the minimum inhibitory concentration (MIC) in data set [1] (setting [2]) is 2.74 µg/mL (≈ 8.72 µM). In addition, the IC50 against InhA reductase enzyme is greater than 100 µM.

In the case of `c1ccc(Oc2ccc(-c3nnc(-c4cccnc4)o3)cc2)cc1` [Compound 6h, 2-(4-Phenoxyphenyl)-5-(pyridin-3-yl)-1,3,4-oxadiazole], the melting point was 143 to 144 °C. In addition, the IC50 in the data set with Vero cell line was greater than 60 µg/mL. On InhA reductase enzyme, this molecule came in with an IC50 of 5.08 µM.

`O=C(N/N=C/c1cccs1)c1ccc(Oc2ccccc2)cc1` [Compound 8k, (E)-4-Phenoxy-N′-(thiophen-2-ylmethylene)benzohydrazide] came in with a melting point of 182 to 183 °C. Moreover, in the data set on Vero cell line, the IC50 is greater than 60 µg/mL. The IC50 at InhA reductase enzyme was determined as 5.61 µM.
